Data reported in patent US6919365B2, “Imidazolidinedione derivatives and use thereof as drugs” (Senju Pharmaceutical Co., Ltd., priority 2001, dated 2005).

How the values were obtained:
[1] = target: T1, recombinant human chymase (Homo sapiens, UniProt P23946); test: Chymase inhibition activity (fluorogenic substrate Suc-Ala-Ala-Pro-Phe-MCA); type: biochemical; conditions: 30° C., 30 minutes
T1 sequence (P23946 22-247): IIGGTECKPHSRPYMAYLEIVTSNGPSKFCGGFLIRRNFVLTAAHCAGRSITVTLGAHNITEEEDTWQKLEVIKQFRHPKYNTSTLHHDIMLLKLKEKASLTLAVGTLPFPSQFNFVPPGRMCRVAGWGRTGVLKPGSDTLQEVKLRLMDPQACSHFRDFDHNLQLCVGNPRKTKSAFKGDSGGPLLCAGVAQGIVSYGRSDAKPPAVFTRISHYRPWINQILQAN
Method: The chymase inhibition activity was measured according to the method of Kato et al. (J. Biochem., Vol.103, pp820(1988)). That is, 72.5 μL of a solution adjusted so that the enzyme activity of recombinant human chymase (JP-A No.10-87567) became 2.3 μUnit with HEPES buffer, was added to 2.5 μL of a test substance dissolved in dimethyl sulfoxide (DMSO), a temperature was retained at 30° C. for 5 minutes, and 125 μL of 0.6 mM Suc-Ala-Ala-Pro-Phe-MCA (manufactured by Peptide Institute Inc.)/Tris buffer as a substrate was added to obtain a reaction solution. The reaction solution was set at a multi-well plate reader CYTOFLUOR Series 4000 (manufactured by Perceptive Biosystems), and a change in the fluorescent intensity was measured at 30° C. for 30 minutes with time (excitation wavelength 360 nm, detection wavelength 450 nm).
As a control, 2.5 μL of DMSO containing no test substance was used, and this was treated and measured similarly. As a blank, a Tris hydrochloric acid buffer was added instead of a chymase solution, and treated and measured similarly.
The chymase inhibition rate (%) was obtained by calculating a slope (S) of an approximation straight line for each test substance, a slope (C) of an approximation straight line for a control, a slope (Bs) of an approximation straight line for a blank of each test substance, and a slope (Bc) of approximation straight line for a blank of a control from a change in the fluorescent intensity, and calculating from the following equation. Inhibition rate (%)=[1−(S−Bs)/(C−Bc)]×100
(§1) Regarding the compounds of the present invention, each 50% inhibition concentration (IC50) was calculated from the chymase and tryptase inhibition activity obtained by the aforementioned method.

human lung tryptase = test: Tryptase inhibition activity (fluorogenic substrate Boc-Val-Pro-Arg-MCA); type: biochemical; conditions: pH7.1, 30° C., 30 minutes
Method: Then, the tryptase inhibition activity was measured according to the method of Muramatsu et al. (Biol. Chem. Hoppe-Seyler, vol.369, pp617(1988)). That is, 62.5 μL of a solution adjusted so that the enzyme activity of human lung tryptase (manufactured by Sigma) became 7.9 μUnit with 0.1M phosphate buffer-1.5M NaCl (pH7.1), was added to 2.5 μL of a test substance dissolved in DMSO, a temperature was retained at 30° C. for 5 minutes, and 125 μL of 0.6mM Boc-Val-Pro-Arg-MCA. HCl (manufactured by BACHEM)/0.1M phosphate buffer (pH7.1) as a substrate was added to obtain a reaction solution. The reaction solution was set at a multi-well plate reader CYTOFLUOR Series 4000 (manufactured by Perceptive Biosystems), and a change in the fluorescent intensity was measured at 30° C. for 30 minutes with time (excitation wavelength 360 nm, detection wavelength 450 nm). As a control, 2.5 μL of DMSO containing no test substance was used, and treated and measured similarly. As a blank, 0.1M phosphate buffer-1.5M NaCl (pH7.1) was added in place of a tryptase solution, and treated and measured similarly.
A tryptase inhibition rate (%) was obtained by calculating a slope (S) of an approximation straight line for each test material, a slope (C) of an approximation straight line for a control, a slope (Bs) of an approximation straight line for a blank of each test substance, and a slope (Bc) of an approximation straight line for a blank of a control from a change in the fluorescent intensity, and calculating from the following equation. Inhibition rate (%)=[1−(S−Bs)/(C−Bc)]×100 Experimental Results
as §1

[2] = test system: rat mast cells (intraperitoneal cell suspension, PEC); test: Rat mast cell histamine release inhibition test; type: cell-based; conditions: for Inhibition rate (%) of release of histamine from mast cells: phosphatidylserine and concanavalin A stimulated
Method: A rat was killed by exsanguinations under ether anesthesia, and 30 mL of a buffer for mast cells (150 mM NaCl, 3.7 mM KCl, 3.0 mM Na2HPO4, 1 mM CaCl2, 5.6 mM glucose) was injected intraperitoneally. An abdominal part was massaged for 90 seconds, and a suspension of intraperitoneal cell was taken. A suspension of an intraperitoneal cell collected from 5 animals was centrifuged at 100 G at 4° C. for 5 minutes, a buffer for mast cells was added, washed three times and, finally, adjusted so that the number of mast cells became 3 to 5×10^5 cells/mL (hereinafter, this solution is abbreviated as PEC).
Compound 5 was dissolved in DMSO to prepare a test drug solution at each concentration (final DMSO concentration 0.8%). 100 μL of the test drug solution was added to 400 μL of the prepared PEC, and pre-incubated at 37° C. for 15 minutes. After pre-incubation, each 50 μL of a solution of phosphatidylserine (10 μg/ml) and concanavalin A(15 μg/ml) which is a histamine-releasing substance was added, and further incubated for 20 minutes. 1.4 mL of an ice-cooled buffer for mast cells was added to stop the reaction, and centrifuged at 250 G at 4° C. for 10 minutes. An amount of the histamine supernatant was quantitated using a fluorescent method. That is, 20 μL of 1N NaOH was added to 40 μL of the supernatant, 20 μL of a 1% o-phthalaldehyde solution in methanol was further added, and allowed to stand at room temperature for 5 minutes. Thereafter, 20 μL of 3N hydrochloric acid was added, and the fluorescent intensity was measured at an excitation wavelength of 350 nm and a fluorescent wavelength of 450 nm to obtain an amount of histamine.
A histamine release inhibition rate (%) was calculated from the following equation: Inhibition rate (%)=[1−(S−B)/(C−B)]×100 • S: amount of histamine in the supernatant, C: amount of histamine in control, B: amount of histamine in blank Test Results

Row | Molecule | IC50 [1] | IC50 (human lung tryptase) | also measured
1 | 1-(3-Chlorobenzyl)-5,5-dimethyl-3-naphthylcarbonylimidazolidine-2,4-dione [Compound 28] | 2200 nM | 2200 nM | –
2 | 1-Isobutyl-3-naphthylcarbonyl-5,5-diphenylimidazolidine -2,4-dione [Compound 23] | 280 nM | 4400 nM | –
3 | 1-Methyl-3-naphthylcarbonyl-5,5-diphenylimidazolidine-2,4-dione [Compound 22] | 3500 nM | 89 nM | –
4 | 3-Naphthylcarbonyl-1,3-diazaspiro[4.5]decane-2,4-dione [Compound 34] | 32000 nM | 280 nM | –
5 | 3-Naphthylcarbonyl-2,4-dioxo-5,5-diphenylimidazolidinylacetic acid [Compound 5] | 1200 nM | 970 nM | Inhibition of release of histamine (in words) ([2]; 8 to 100 μM): inhibited release of histamine concentration-dependently; Inhibition rate (%) of release of histamine from mast cells ([2]; test drug concentration 8 μM): 28%; Inhibition rate (%) of release of histamine from mast cells ([2]; test drug concentration 40 μM): 59%; Inhibition rate (%) of release of histamine from mast cells ([2]; test drug concentration 80 μM): 78%; Inhibition rate (%) of release of histamine from mast cells ([2]; test drug concentration 100 μM): 83%
6 | 3-Naphthylcarbonyl-5,5-diphenylimidazolidine-2,4-dione [Compound 2] | 340 nM | 46 nM | –
7 | 4-(5,5-Dimethyl-3-naphthylcarbonyl-2,4-dioxoimidazolidinylmethyl)benzonitrile [Compound 27] | 540 nM | 7100 nM | –
8 | 5,5- Dimethyl-3-naphthylcarbonylimidazolidine-2,4-dione [Compound 8] | 30000 nM | 3200 nM | –
9 | 5,5-Dimethyl-1,3-bisnaphthylcarbonyl imidazolidine-2,4-dione [Compound 33] | 1800 nM | 1500 nM | –
10 | 5,5-Dimethyl-3-naphthylcarbonyl-1,3-oxazolidine-2,4-dione [Compound 9] | 730 nM | 1000 nM | –
11 | 5,5-Dimethyl-3-naphthylcarbonyl-1-(2-oxo-2-phenylethyl)imidazolidine-2,4-dione [Compound 30] | 3300 nM | 7200 nM | –
12 | 5-Methyl-3-naphthylcarbonyl-2,4-dioxo-5-phenylimidazolidinylacetic acid [Compound 16] | 910 nM | 1800 nM | –
13 | O=C1NC(c2ccccc2)(c2ccccc2)C(=O)N1C(=O)c1ccc2ccccc2c1 [Compound 1, 3-(2-Naphthylcarbonyl)-5,5-diphenylimidazolidine-2,4-dione] | 66 nM | 390 nM | –
14 | CC1(c2ccccc2)NC(=O)N(C(=O)c2cccc3ccccc23)C1=O (centres unmarked) [Compound 7] | 6500 nM | 370 nM | –
15 | CC1(c2ccccc2)C(=O)N(C(=O)c2cccc3ccccc23)C(=O)N1Cc1cccc(Cl)c1 (centres unmarked) [Compound 25, 1-(3-Chlorobenzyl)-5-methyl-3-naphthylcarbonyl-5-phenylimidazolidine-2,4-dione] | 580 nM | 86000 nM | –
16 | Ethyl 2-(3-naphthylcarbonyl-2,4-dioxo-5,5-diphenylimidazolidinyl)acetate [Compound 3] | 1000 nM | 930 nM | –
17 | Tert-butyl (5,5-dimethyl-3-naphthylcarbonyl-2,4-dioxoimidazolidinyl)acetate [Compound 13] | 2700 nM | 1600 nM | –
18 | tert-Butyl (5-methyl-3-naphthylcarbonyl-2,4-dioxo-5-phenylimidazolidinyl)acetate [Compound 14] | 260 nM | 1600 nM | –
